Reference: patent publication US20040116354A1, “Supplementary immunotherapeutics to be used after lung cancer removal” (priority 2001, published 2004)

Key:
[1] = tested on: non-small cell lung cancer; settings: histopathological stages I and II; 90 mg twice weekly for 5 years; 227 cases; cited from earlier work
humans = tested on: humans; set-up: dose or concentration left out as unconfirmed; settings: cited from earlier work
[2] = tested on: lung squamous cell carcinoma; settings: histopathological stage I; 30 mg daily for one year or longer; 21 cases; with or without tegaful; cited from earlier work
[3] = tested on: lung squamous cell carcinoma in the histopathological stage I; assay: multicenter double blind comparative clinical test, ubenimex preparation vs placebo after complete resection; type: in vivo, human
Protocol: With complete resection patients of lung squamous cell carcinoma in the histopathological stage I, a multicenter double blind comparative test using an ubenimex preparation (containing 30 mg ubenimex) and a placebo preparation (a control contentaining no ubenimex) was carried out. The ubenimex preparation or the placebo preparation was administered orally once a day. The dosing period of these preparations was 2 years after surgical resection. The observation period was 5 years or more including the subsequent period of 3 years or more of no administration after the dosing period. The survival time and recurrence-free survival time in the collected 389 cases (189 cases at the stage IA and 200 cases at the stage IB) were compared between the two groups, namely the ubenimex group and the placebo group by the Kaplan-Meier method. Tables 1 and 2 show the results of the statistic analysis by the generalized Wilcoxon test and the Log-Rank test. […] In these tables, the “U group” means the ubenimex-administered group and the “P group” means the placebo-administered group.

mice = settings: 298 mg/kg (i.p.); cited from earlier work
[4] = Stage IA (189 cases), 30 mg orally once a day for 2 years
[5] = Stage IB (200 cases), 30 mg orally once a day for 2 years
[6] = total cases stage I (389 cases), 30 mg orally once a day for 2 years after resection, Kaplan-Meier

CC(C)C[C@H](NC(=O)[C@@H](O)[C@H](N)Cc1ccccc1)C(=O)O [ubenimex, (−)-N-((2S, 3R)-3-amino-2-hydroxy-4-phenylbutyryl)-L-leucine]
recurrence-free survival time vs non-administered group [1]: favorable trend compared with the non-administered group in terms of recurrence-free survival time but the trend is far from significance | adverse effects in humans (humans): no specific adverse effects observed | survival time vs ubenimex non-administered group [2]: prolonged | incidence of appetite loss (only adverse effect significantly occurring) ([3]; 30 mg orally once a day for 2 years): 2.5% | 5-year recurrence-free survival ratio [3, 4]: 73% | 5-year survival ratio (survival time) [3, 4]: 84% | 5-year recurrence-free survival ratio [3, 5]: 68% | 5-year survival ratio (survival time) [3, 5]: 77% | 5-year recurrence-free survival ratio [3, 6]: 70% | 5-year survival ratio (survival time) [3, 6]: 81% | toxicity in mice (mice): no observed toxicity
